Reference: US5013743A, “Selective antibacterial agent against campytobacter” (Takeda Chemical Industries, Ltd., priority 1989, dated 1991)
Values after ≈ are worked out from the molar mass of the structure shown.

Key:
genus Campylobacter = experiment: Antibacterial activity against the genus Campylobacter (Tables 2 and 3, summary in words); format: cell-based, Campylobacter pylori; conditions: fluorinated alkyl derivatives vs other derivatives, Table 2 and Table 3
Method: (§1) The minimum inhibitory concentration (MIC) of each compound was determined by the agar-plate dilution method based on the standard method advocated by Japan Society of Chemotherapy [cf: Chemotherapy, Jan. '81, p. 76]. The volume of agar medium per plate was 20 ml. Each of the test compounds was dissolved in dimethylsulfoxide at a concentration of 80 mg/ml or 40 mg/ml, and diluted 10 times with sterile distilled water. Furthermore, the aqueous solution of 8 mg/ml or 4 mg/ml was diluted serially 2-fold with sterile distilled water. To 2 ml of the diluted solution was added 18 ml of Brucella agar (BBL Microbiology Systems, Becton Dickinson and Co., Cockeysville, Md. 21030) containing 7% defibrinated horse blood (manufactured by Nippon Bio-supp. Center) and mixed well. Test strains frozen at -80° C. in Brucella broth (BBL) containing 10% horse serum were thawed and inoculated on a Brucella agar slant medium containing 7% defibrinated horse blood. The medium was incubated anaerobically at 37° C. for 3 days in a jar containing a piece of sponge sufficiently impregnated with water and Campy Pak™ (BBL). The organisms grown on the slant medium were collected and suspended in a Brucella broth to correspond to the turbidity of about 10^8 CFU/ml of common bacteria. One platinum loop of inoculum was streaked on the medium plates for determination. The plates were incubated under the same conditions as described above.

C. pylori CLO 1 = experiment: MIC, agar-plate dilution method, test strain F; format: cell-based; conditions: Helicobacter pylori, CLO1, 72 h, Brucella agar, 37° C., 3 days
Method: as §1

C. pylori CLO 6 = experiment: MIC, agar-plate dilution method, test strain G; format: cell-based; conditions: Helicobacter pylori, CLO6, 72 h, Brucella agar, 37° C., 3 days
Method: as §1

C. pylori PCL 56 = experiment: MIC, agar-plate dilution method, test strain C; format: cell-based; conditions: Helicobacter pylori, PCL56, 72 h, Brucella agar, 37° C., 3 days
Method: as §1, with “above. […] The results are shown in Table 2 and Table 3. | C: C. pylori PCL 56” for “above.”

C. pylori NCTC 11637 = experiment: MIC, agar-plate dilution method, test strain B; format: cell-based; conditions: Helicobacter pylori, NCTC11637, 72 h, Brucella agar, 37° C., 3 days
Method: as §1

C. pylori CPY 00111 = experiment: MIC, agar-plate dilution method, test strain D; format: cell-based; conditions: Helicobacter pylori, CPY00111, 72 h, Brucella agar, 37° C., 3 days
Method: as §1

C. pylori NCTC 11916 = experiment: MIC, agar-plate dilution method, test strain A; format: cell-based; conditions: Helicobacter pylori, NCTC11916, 72 h, Brucella agar, 37° C., 3 days
Method: as §1

C. pylori KS 13 = experiment: MIC, agar-plate dilution method, test strain E; format: cell-based; conditions: Helicobacter pylori, KS13, 72 h, Brucella agar, 37° C., 3 days
Method: as §1

Structure (SMILES)	antibacterial activity compared with other derivatives (genus Campylobacter)	MIC (C. pylori CLO 1)	MIC (C. pylori CLO 6)	MIC (C. pylori PCL 56)	MIC (C. pylori NCTC 11637)	MIC (C. pylori CPY 00111)	MIC (C. pylori NCTC 11916)	MIC (C. pylori KS 13)
Cc1c(OCC(F)(F)C(F)(F)F)ccnc1C[S+]([O-])c1nc2ccccc2[nH]1 (stereo not shown) [Compound 3]	stronger antibacterial activity	1.56 µg/mL (≈ 3.72 µM)	6.25 µg/mL (≈ 14.9 µM)	3.13 µg/mL (≈ 7.46 µM)	6.25 µg/mL (≈ 14.9 µM)	3.13 µg/mL (≈ 7.46 µM)	3.13 µg/mL (≈ 7.46 µM)	3.13 µg/mL (≈ 7.46 µM)
Cc1c(OCC(F)(F)C(F)F)ccnc1C[S+]([O-])c1nc2ccccc2[nH]1 (stereo not shown) [Compound 4]	stronger antibacterial activity	0.78 µg/mL (≈ 1.94 µM)	6.25 µg/mL (≈ 15.6 µM)	6.25 µg/mL (≈ 15.6 µM)	6.25 µg/mL (≈ 15.6 µM)	1.56 µg/mL (≈ 3.89 µM)	1.56 µg/mL (≈ 3.89 µM)	1.56 µg/mL (≈ 3.89 µM)
CC(C)COc1ccnc(CSc2nc3ccccc3[nH]2)c1 [Compound 7]		12.5 µg/mL (≈ 39.9 µM)	12.5 µg/mL (≈ 39.9 µM)	12.5 µg/mL (≈ 39.9 µM)	12.5 µg/mL (≈ 39.9 µM)	12.5 µg/mL (≈ 39.9 µM)	12.5 µg/mL (≈ 39.9 µM)	12.5 µg/mL (≈ 39.9 µM)
CC(C)COc1ccnc(CSc2nc3cc(C(F)(F)F)ccc3[nH]2)c1 [Compound 8]		12.5 µg/mL (≈ 32.8 µM)	12.5 µg/mL (≈ 32.8 µM)	12.5 µg/mL (≈ 32.8 µM)	12.5 µg/mL (≈ 32.8 µM)	12.5 µg/mL (≈ 32.8 µM)	12.5 µg/mL (≈ 32.8 µM)	12.5 µg/mL (≈ 32.8 µM)
CC(C)Oc1ccnc(CSc2nc3cc(C(F)(F)F)ccc3[nH]2)c1 [Compound 9]		12.5 µg/mL (≈ 34 µM)	12.5 µg/mL (≈ 34 µM)	12.5 µg/mL (≈ 34 µM)	12.5 µg/mL (≈ 34 µM)	12.5 µg/mL (≈ 34 µM)	12.5 µg/mL (≈ 34 µM)	12.5 µg/mL (≈ 34 µM)
C=CCOc1ccnc(CSc2nc3cc(C(F)(F)F)ccc3[nH]2)c1 [Compound 10]		25 µg/mL (≈ 68.4 µM)	25 µg/mL (≈ 68.4 µM)	25 µg/mL (≈ 68.4 µM)	25 µg/mL (≈ 68.4 µM)	25 µg/mL (≈ 68.4 µM)	25 µg/mL (≈ 68.4 µM)	25 µg/mL (≈ 68.4 µM)
C#CCOc1ccnc(CSc2nc3cc(C(F)(F)F)ccc3[nH]2)c1 [Compound 11]		12.5 µg/mL (≈ 34.4 µM)	12.5 µg/mL (≈ 34.4 µM)	12.5 µg/mL (≈ 34.4 µM)	12.5 µg/mL (≈ 34.4 µM)	12.5 µg/mL (≈ 34.4 µM)	12.5 µg/mL (≈ 34.4 µM)	12.5 µg/mL (≈ 34.4 µM)
Cc1c(OCC(F)(F)C(F)F)ccnc1CSc1nc2ccccc2[nH]1 [Compound 12]	stronger antibacterial activity	1.56 µg/mL (≈ 4.05 µM)	0.78 µg/mL (≈ 2.02 µM)	1.56 µg/mL (≈ 4.05 µM)	0.78 µg/mL (≈ 2.02 µM)	1.56 µg/mL (≈ 4.05 µM)	1.56 µg/mL (≈ 4.05 µM)	1.56 µg/mL (≈ 4.05 µM)
Cc1c(OCC(F)(F)C(F)(F)F)ccnc1CSc1nc2ccccc2[nH]1 [Compound 13]	stronger antibacterial activity	1.56 µg/mL (≈ 3.87 µM)	1.56 µg/mL (≈ 3.87 µM)	1.56 µg/mL (≈ 3.87 µM)	1.56 µg/mL (≈ 3.87 µM)	1.56 µg/mL (≈ 3.87 µM)	1.56 µg/mL (≈ 3.87 µM)	1.56 µg/mL (≈ 3.87 µM)
